Measurements published in article PMC8026324, “In Vitro Antiplasmodial, Heme Polymerization, and Cytotoxicity of Hydroxyxanthone Derivatives” (Journal of Tropical Medicine, 2021).

Columns and labels:
WIDR = system: WIDR; set-up: method as in earlier work; settings: cited from earlier work
[1] = system: Plasmodium falciparum 3D-7 (chloroquine-sensitive strain); test: In vitro antiplasmodial activity assay, microscopic method, strain 3D-7; format: cell-based; settings: for IC50: 72 hours incubation, microscopic method, read-out: IC50 on P. falciparum 3D-7; for antiplasmodial activity category on P. falciparum 3D-7: category by IC50
Procedure: (§1) The test of antiplasmodial activity began with the culture of P. falciparum 3D-7 and FCR-3 using the modified Trager and Jensen method. The plasmodium was cultured in human O red blood cells diluted to 3% haematocrit in RPMI 1640 medium complemented with 10% human O serum. The medium was made by adding 10.43 g of powder RPMI 1640, 6 g HEPES, 2 g NaHCO3, 25 mg gentamycin, and sterile distilled water up to 1 L. The medium pH was adjusted so that it reached ±7.2. It was sterilized using a 0.22 μm filter and stored at 4°C. The complete plasmodium culture medium was made by adding human serum with a concentration of 10% in the medium. The plasmodium culture was incubated in candle jar in an incubator with a temperature of 37°C and was observed every 24 hours.
(§2) The plasmodium was synchronized to obtain the ring stage by adding 5% of D-sorbitol. The plasmodium was transferred from culture flask to a conical tube, and then it was centrifuged with a speed of 1000 rpm for 10 minutes. After the supernatant was disposed, the sterile 5% sorbitol was added and incubated for 10 minutes at a temperature of 37°C. The plasmodium suspension was centrifuged again; the supernatant was disposed and the plasmodium was washed by adding culture medium. Then, the plasmodium suspension was centrifuged again, and the supernatant was discarded, resulting in a plasmodium in ring stage only. The parasitemia was calculated from a thin blood preparation. The test used 1% parasitemia at 2% haematocrit in RPMI medium which complemented with 10% human O serum.
(§3) Each testing compound was dissolved in RPMI medium. The testing compound in various concentrations with volume of 100 μL was incorporated into the 96-well microplate, and then 100 μL of Plasmodium suspension was added. Each series of concentrations was replicated three times. The microplate was incubated at a temperature of 37°C for 72 hours. At the end of the incubation, a thin blood smear was made using 10% Giemsa stain and observed under a light microscope at 1000x magnification. The percentage of parasitemia (counting a minimum of 1,000 erythrocytes) was calculated from the preparation of thin blood and then used to calculate the percentage of plasmodium growth inhibition. […] Antiplasmodial activity is expressed as IC50, which is the concentration of a compound that is required for 50% inhibition of plasmodium growth. The IC50 value was calculated by probit analysis using SPSS software (IBM Corp., Chicago). The lower the IC50 value obtained, the greater the antiplasmodial activity.

MCF-7 = system: MCF-7; set-up: method as in earlier work; settings: cited from earlier work
Vero cells = test: In vitro cytotoxicity test, MTT assay on Vero cell line; format: cell-based; settings: for IC50: MTT assay; for Selectivity index 3D-7: ratio IC50 on Vero cell/IC50 on P. falciparum 3D-7; for Selectivity index FCR-3: ratio IC50 on Vero cell/IC50 on P. falciparum FCR-3
Procedure: The in vitro cytotoxicity test was conducted using the 3-(4,5-dimethylthiazol-2-yl)2,5-diphenyltetrazolium bromide (MTT) assay method on Vero cell line culture using the Anderson et al.'s modified method.
The cell was removed from the cryo medium. Then, the cell was thawed at 37°C. The liquid cell was subsequently transferred to the tube and a culture medium was added to a volume of 10 mL. Then, the suspension was centrifuged for 15 minutes so that it would form cell pellets. The supernatant was removed and 1 mL of culture medium was added to the cell pellets. Finally, the suspension was transferred to the Petri dish and incubated in the incubator with 5% of CO2 at 37°C.
The medium of Vero cell culture was removed, and then the cell was washed using a PBS solution with a volume of PBS ± 1/2 of the initial medium volume. This step was done twice and 1 mL of trypsin 0.25% was added. Subsequently, the cell was incubated in the CO2 incubator at 37°C for 3 minutes. Then, the cell was resuspended using 2 mL of culture medium and PBS solution was added up to 10 mL. The suspension was centrifuged for 15 minutes so that it formed pellets. Pellets were added with 1 mL of culture medium and resuspended. Take 10 μL of the cell suspension and density of cells was calculated.
Then, the cell was added with culture medium to 10 mL. A total of 100 μL of such suspensions was transferred into each well of the 96-well microplate, but three of the wells were emptied as medium controls. Subsequently, the microplate was incubated in a 5% CO2 incubator at 37°C.
Each hydroxyxanthone derivative compound was dissolved in DMSO, and a variety of concentrations were prepared in the medium. Each concentration of the testing compound was added into the 96-well microplate triplicately. Cell control and medium control were not given a testing compound solution. The medium control remained blank, while the cell control contained culture medium only. […] Then, the cell was incubated in a 5% CO2 incubator at 37°C for 24 hours.
After the cell was incubated for 24 hours, the medium was discarded and washed with PBS. Then, each well was added with 100 μL of 5 mg/mL of MTT solution. The 96-well microplate was incubated again in the incubator of CO2 at 37°C for 4 hours. Then, 100 μL of 10% of SDS in 0.01 MHCl was added. The cells were placed in a dark room at room temperature for 24 hours.
The absorbance was measured using the enzyme-linked immunosorbent assay (ELISA) reader at 595 nm wavelength. The cytotoxicity test on the Vero cells was done by calculating the percentage of Vero cell inhibition of the absorption value of the test compound, cell control, and medium control. The cytotoxic effect was expressed as IC50. The IC50 value was obtained from the probit analysis by using SPSS software (IBM Corp., Chicago). The degree of selectivity was expressed as a selectivity index. The selectivity index was obtained from the ratio between the IC50 cytotoxic effect on Vero cells and IC50 antiplasmodial activity on Plasmodium. A compound is said to be safe if the value of the selectivity index is >10 [20].

Hela = system: Hela; set-up: method as in earlier work; settings: cited from earlier work
[2] = system: Plasmodium falciparum FCR-3 (chloroquine-resistant strain); test: In vitro antiplasmodial activity assay, microscopic method, strain FCR-3; format: cell-based; settings: for IC50: 72 hours incubation, microscopic method, read-out: IC50 on P. falciparum FCR-3; for antiplasmodial activity category on P. falciparum FCR-3: category by IC50
Procedure: as §1, §2, §3

[3] = Chlorocebus sabaeus, Vero, 24 h, 24 hours incubation

O=c1c2cccc(Cl)c2oc2cccc(O)c12 [HX4, 1-hydroxy-5-chloroxanthone]
cytotoxicity on WIDR (in words) (WIDR): weak | inhibition at 50.68 µM ([1]; Plasmodium falciparum, 50.68 μM, read-out: Growth inhibition of P. falciparum Strain 3D-7): 46.5 ± 0.8% | inhibition at 101.36 µM ([1]; Plasmodium falciparum, 101.36 μM, read-out: Growth inhibition of P. falciparum Strain 3D-7): 50.96 ± 0.361% | inhibition at 202.71 µM ([1]; Plasmodium falciparum, 202.71 μM, read-out: Growth inhibition of P. falciparum Strain 3D-7): 57.1 ± 1.57% | inhibition at 405.43 µM ([1]; Plasmodium falciparum, 405.43 μM, read-out: Growth inhibition of P. falciparum Strain 3D-7): 64.51 ± 0.418% | inhibition at 810.86 µM ([1]; Plasmodium falciparum, 810.86 μM, read-out: Growth inhibition of P. falciparum Strain 3D-7): 74 ± 0.923% | IC50 ([1]; Plasmodium falciparum): 85.3 ± 4.87 µM | antiplasmodial activity category on P. falciparum 3D-7 [1]: moderate (moderate (IC50 20–100 μM)) | cytotoxicity on MCF-7 (in words) (MCF-7): weak | IC50 (Vero cells; 24 hours incubation): 331 µM | IC50 (Vero cells; [3]): 335 µM | inhibition at 63.25 µM (Vero cells; Chlorocebus sabaeus, Vero, 24 h, 63.25 μM, read-out: Vero cell growth inhibition after 24 hours incubation): 19% | inhibition at 126.49 µM (Vero cells; Chlorocebus sabaeus, Vero, 24 h, 126.49 μM, read-out: Vero cell growth inhibition after 24 hours incubation): 32.5% | inhibition at 253.39 µM (Vero cells; Chlorocebus sabaeus, Vero, 24 h, 253.39 μM, read-out: Vero cell growth inhibition after 24 hours incubation): 43.2% | inhibition at 506.78 µM (Vero cells; Chlorocebus sabaeus, Vero, 24 h, 506.78 μM, read-out: Vero cell growth inhibition after 24 hours incubation): 54.4% | inhibition at 1013.57 µM (Vero cells; Chlorocebus sabaeus, Vero, 24 h, 1013.57 μM, read-out: Vero cell growth inhibition after 24 hours incubation): 68.9% | inhibition at 2027.14 µM (Vero cells; Chlorocebus sabaeus, Vero, 24 h, 2027.14 μM, read-out: Vero cell growth inhibition after 24 hours incubation): 90% | IC50 (Vero cells; Chlorocebus sabaeus, Vero): 82.6 µg/mL | Selectivity index 3D-7 (Vero cells): 3.88 | Selectivity index FCR-3 (Vero cells): 3.68 | cytotoxicity on Hela (in words) (Hela): weak | inhibition at 50.68 µM ([2]; Plasmodium falciparum, FCR3, 50.68 μM, read-out: Growth inhibition of P. falciparum Strain FCR-3): 47.4 ± 0.736% | inhibition at 101.36 µM ([2]; Plasmodium falciparum, FCR3, 101.36 μM, read-out: Growth inhibition of P. falciparum Strain FCR-3): 49.8 ± 3.36% | inhibition at 202.71 µM ([2]; Plasmodium falciparum, FCR3, 202.71 μM, read-out: Growth inhibition of P. falciparum Strain FCR-3): 56.4 ± 3.79% | inhibition at 405.43 µM ([2]; Plasmodium falciparum, FCR3, 405.43 μM, read-out: Growth inhibition of P. falciparum Strain FCR-3): 61.2 ± 3.02% | inhibition at 810.86 µM ([2]; Plasmodium falciparum, FCR3, 810.86 μM, read-out: Growth inhibition of P. falciparum Strain FCR-3): 72.9 ± 1.34% | IC50 ([2]; Plasmodium falciparum, FCR3): 89.9 ± 7.69 µM | antiplasmodial activity category on P. falciparum FCR-3 [2]: moderate (moderate (IC50 20–100 μM))

Cc1c(O)ccc2c(=O)c3c(O)cccc3oc12 [HX5, 1,6-dihydroxy-5-methylxanthone]
cytotoxicity on WIDR (in words) (WIDR): weak | inhibition at 20.64 µM ([1]; Plasmodium falciparum, 20.64 μM, read-out: Growth inhibition of P. falciparum Strain 3D-7): 37.9 ± 0.441% | inhibition at 41.28 µM ([1]; Plasmodium falciparum, 41.28 μM, read-out: Growth inhibition of P. falciparum Strain 3D-7): 45 ± 0.563% | inhibition at 82.56 µM ([1]; Plasmodium falciparum, 82.56 μM, read-out: Growth inhibition of P. falciparum Strain 3D-7): 54.2 ± 1.57% | inhibition at 165.13 µM ([1]; Plasmodium falciparum, 165.13 μM, read-out: Growth inhibition of P. falciparum Strain 3D-7): 75.4 ± 1.29% | inhibition at 330.25 µM ([1]; Plasmodium falciparum, 330.25 μM, read-out: Growth inhibition of P. falciparum Strain 3D-7): 93.3 ± 0.956% | IC50 ([1]; Plasmodium falciparum): 46.69 ± 0.29 µM | antiplasmodial activity category on P. falciparum 3D-7 [1]: moderate (moderate (IC50 20–100 μM)) | cytotoxicity on MCF-7 (in words) (MCF-7): weak | IC50 (Vero cells; 24 hours incubation): 418 µM | IC50 (Vero cells; [3]): 459 µM | inhibition at 64.4 µM (Vero cells; Chlorocebus sabaeus, Vero, 24 h, 64.40 μM, read-out: Vero cell growth inhibition after 24 hours incubation): -5.19% | inhibition at 128.8 µM (Vero cells; Chlorocebus sabaeus, Vero, 24 h, 128.80 μM, read-out: Vero cell growth inhibition after 24 hours incubation): 27.9% | inhibition at 258.01 µM (Vero cells; Chlorocebus sabaeus, Vero, 24 h, 258.01 μM, read-out: Vero cell growth inhibition after 24 hours incubation): 37.8% | inhibition at 516.02 µM (Vero cells; Chlorocebus sabaeus, Vero, 24 h, 516.02 μM, read-out: Vero cell growth inhibition after 24 hours incubation): 48.3% | inhibition at 1032.03 µM (Vero cells; Chlorocebus sabaeus, Vero, 24 h, 1032.03 μM, read-out: Vero cell growth inhibition after 24 hours incubation): 68.1% | inhibition at 2064.07 µM (Vero cells; Chlorocebus sabaeus, Vero, 24 h, 2064.07 μM, read-out: Vero cell growth inhibition after 24 hours incubation): 88.8% | IC50 (Vero cells; Chlorocebus sabaeus, Vero): 111 µg/mL | Selectivity index 3D-7 (Vero cells): 8.94 | Selectivity index FCR-3 (Vero cells): 6.99 | cytotoxicity on Hela (in words) (Hela): weak | inhibition at 20.64 µM ([2]; Plasmodium falciparum, FCR3, 20.64 μM, read-out: Growth inhibition of P. falciparum Strain FCR-3): 33.63 ± 0.327% | inhibition at 41.28 µM ([2]; Plasmodium falciparum, FCR3, 41.28 μM, read-out: Growth inhibition of P. falciparum Strain FCR-3): 41.14 ± 0.396% | inhibition at 82.56 µM ([2]; Plasmodium falciparum, FCR3, 82.56 μM, read-out: Growth inhibition of P. falciparum Strain FCR-3): 46.5 ± 0.816% | inhibition at 165.13 µM ([2]; Plasmodium falciparum, FCR3, 165.13 μM, read-out: Growth inhibition of P. falciparum Strain FCR-3): 73.5 ± 1.6% | inhibition at 330.25 µM ([2]; Plasmodium falciparum, FCR3, 330.25 μM, read-out: Growth inhibition of P. falciparum Strain FCR-3): 84.7 ± 0.902% | IC50 ([2]; Plasmodium falciparum, FCR3): 59.7 ± 0.78 µM | antiplasmodial activity category on P. falciparum FCR-3 [2]: moderate (moderate (IC50 20–100 μM))
